The values that follow are results of earlier work, collected in US20140230258A1, “COMPACT HAND HELD DEVICE” (The Gillette Company, priority 2013, published 2014).

The conditions of the series: organism not stated.

On to `CCCCCCCCn1sc(Cl)c(Cl)c1=O` [4,5-dichloro-2-n-octyl-4-isothiazolin-3-one], for which the MIC entry is listed as “about 50 ppm”.
